Read-outs that look alike come from different tables or passages of the source. Starred links: 1 amine or outer side, 2 acyl side, 3 side chain; linkers in the order of their positions; H or OH if unused. Positions of bridges follow the written chain, without caps; N, C: chain ends. Non-standard residues stand in square brackets, D forms with d. Residues, ends and D or L forms follow the SMILES beside them. Chains are numbered I, II in the order given. Actinocin(9to1) = Cc1c2oc3c(C)ccc(C(=O)[*:1])c3nc-2c(C(=O)[*:2])c(N)c1=O; NMeV = CN[C@H](C(=O)O)C(C)C; Sar = CNCC(=O)O
Tests used:
[1] = tested on: PfUDN; experiment: DNA helicase (unwinding) assay of PfUDN; assay type: biochemical, Plasmodium falciparum; settings: for effect on DNA unwinding (helicase) activity of PfUDN: compound 20 μM, partial duplex substrate, Figure 3; for effect on helicase activity of PfUDN at lower concentration: upto 5 μM concentration tested (data not shown); for IC50: inhibitor 0.5-5.0 μM, unit printed in text b27, not in table or picture labels, read-out: IC50, inhibition of helicase (DNA unwinding) activity of PfUDN
Experimental: The specially designed partial duplex substrate consisted of a ^32P-labelled 47-mer DNA oligodeoxynucleotide annealed to M13mp19 phage ssDNA. This oligodeoxynucleotide of the nucleotide sequence 5'- (T)15[…](T)15-3' contains 15 base-pairs of non-complementary region (T)15 at both the 5’ and 3’ ends. Oligodeoxynucleotide was labeled at 5′-end with T4 polynucleotide kinase (PNK) (5U) (New England Biolabs) and 1.85 MBq of [γ-^32P] ATP (specific activity 222 TBq/mmol) at 37°C for one hour and then annealed using standard annealing buffer (20 mM Tris-HCl, pH 7.5, 10 mM MgCl2, 100 mM NaCl, 1 mM DTT) with 0.5 μg of single-stranded circular M13mp19 (+) phage DNA by heating at 95°C for 1 min and then transferring immediately to 65°C for 2 min and then slow cooling to room temperature. Using gel filtration through a Sepharose 4B column (Pharmacia, Sweden) the non-hybridized oligodeoxynucleotide was removed. The reaction volume of 10 μl containing the ^32P-labeled helicase substrate (1000 cpm/10 μl) in appropriate buffer (20 mMTris-HCl, pH 8.0, 8 mM DTT, 1.0 mM MgCl2, 20 mMKCl and 16 μg/ml BSA) and PfUDN was incubated at 37°C for 60 min. The substrate and products were separated by electrophoresis on a nondenaturing 12% PAGE and the gel was exposed to hyper film for autoradiography or scanned on phosphoimager. In order to study the effect of DNA-interacting compounds on helicase activity, different compounds were added to the helicase reaction mixture prior to the addition of the PfUDN helicase. All the experiments were performed in duplicate and quantitation of both the substrate and unwound DNA bands was done using AlphaImager-EP/Image-J software ( http://rsbweb.nih.gov/ij/). Quantification data was used to calculate the standard deviation using Microsoft Excel 2010 and mean value was used to prepare the graph.

[2] = tested on: malaria parasite; settings: cited from earlier work
[3] = tested on: PfUDN; experiment: ssDNA-dependent ATPase assay of PfUDN; assay type: biochemical, Plasmodium falciparum; settings: for effect on ssDNA dependent ATPase activity of PfUDN: compound 20 μM, PfUDN 100 nM, reaction mixture (DNA) preincubated 15 min with compound, Figure 1A; for IC50: inhibitor 0.2-5.0 μM (ciprofloxacin 0.5-30 μM), read-out: IC50, inhibition of ssDNA-dependent ATPase activity of PfUDN
Experimental: Standard protocol of ATPase assay was followed as described in the previous report. The hydrolysis of ATP catalyzed by PfUDN was assayed by measuring the formation of Pi from [γ-^32P] ATP. The reaction mixture of 10 μl contained [γ-^32P] ATP (specific activity 222 TBq.mmol^-1) and cold ATP (1 mM), ATPase buffer (20 mM Tris-HCl, pH 8.0, 8 mM DTT, 1.0 mM MgCl2, 20 mM KCl and 16 μg/ml BSA), purified PfUDN and 50 ng or 100 ng of M13 mp19 ssDNA. The reaction mixtures were incubated at 37°C for 60 min. This was followed by thin layer chromatography (TLC), and the quantitation was done using Alpha Imager-EP/Image-J software ( http://rsbweb.nih.gov/ij/). In order to study the effect of various compounds on ssDNA-dependent ATPase activity, different compounds were added into the reaction mixture prior to the addition of the PfUDN. In another set of experiment, PfUDN was pre-incubated (15 min) with these compounds in order to obtain the insight of inhibitory mechanism. All the experiments were performed at least two times and quantification data was used to calculate the standard deviation using Microsoft Excel 2010 and mean value was used to prepare the graph.

[4] = tested on: PfH45; settings: comparison column of Table 1; no unit and no reference given; read-out: inhibitory potential for ATPase activity, PfH45; cited from earlier work
[5] = tested on: PfDH60; settings: Table 2; no unit and no reference given; read-out: inhibitory potential for helicase activity, PfDH60; cited from earlier work
[6] = tested on: PfH45; settings: Table 2; no unit and no reference given; read-out: inhibitory potential for helicase activity, PfH45; cited from earlier work
[7] = tested on: PfD66/PfDDX19; settings: Table 2; no unit and no reference given; read-out: inhibitory potential for helicase activity, PfD66/PfDDX19; cited from earlier work
[8] = tested on: PfD66/PfDDX19; settings: comparison column of Table 1; no unit and no reference given; read-out: inhibitory potential for ATPase activity, PfD66/PfDDX19; cited from earlier work
[9] = tested on: PfDH60; settings: comparison column of Table 1; no unit and no reference given; read-out: inhibitory potential for ATPase activity, PfDH60; cited from earlier work
[10] = unit printed in text b20, not in table or picture labels

## O=C(O)c1cn(C2CC2)c2cc(N3CCNCC3)c(F)cc2c1=O [Ciprofloxacin, ciprofloxacin]
[1]
  effect on DNA unwinding (helicase) activity of PfUDN: inhibit the DNA unwinding activity of PfUDN effectively
  effect on helicase activity of PfUDN at lower concentration: failed to show appreciable inhibition
[2]
  inhibition of malaria parasite growth: found effective
[3]
  effect on ssDNA dependent ATPase activity of PfUDN: weakly inhibit
[3]; unit printed in text b20, not in table or picture labels, listed as ciprofloxacin
  IC50: ~10 µM
[3]; [10]
  IC50: 9.9 µM

## N=C(N)c1ccc(-c2cc3ccc(C(=N)N)cc3[nH]2)cc1 [DAPI]
[3]
  effect on ssDNA dependent ATPase activity of PfUDN: inhibit

## COc1cccc2c1C(=O)c1c(O)c3c(c(O)c1C2=O)C[C@@](O)(C(C)=O)C[C@@H]3O[C@H]1C[C@H](N)[C@H](O)[C@H](C)O1 [Daunorubicin, daunorubicin]
[4]
  IC50: 5 µM
[1]
  effect on DNA unwinding (helicase) activity of PfUDN: inhibit the DNA unwinding activity of PfUDN effectively
  IC50: 3 µM
[1]; listed as daunorubicin
  IC50: ~3 µM
[5]
  IC50: 0.3 µM
[6]
  IC50: 1.5 µM
[3]
  effect on ssDNA dependent ATPase activity of PfUDN: top four inhibitors
  IC50: ~3 µM

## CC[n+]1c(-c2ccccc2)c2cc(N)ccc2c2ccc(N)cc21 [Ethidium bromide, ethidium bromide]
[4]
  IC50: 1.5 µM
[1]
  effect on DNA unwinding (helicase) activity of PfUDN: inhibit the DNA unwinding activity of PfUDN effectively
  IC50: 4.8 µM
[5]
  IC50: 1.5 µM
[7]
  IC50: 1 µM
[6]
  IC50: 1 µM
[3]
  effect on ssDNA dependent ATPase activity of PfUDN: top four inhibitors
[8]
  IC50: 1.5 µM
[9]
  IC50: 2.5 µM

## Cn1cc(NC(=O)c2cc(NC(=O)CN=C(N)N)cn2C)cc1C(=O)NCCC(=N)N [Netropsin, netropsin]
[4]
  IC50: 1.5 µM
[1]
  effect on DNA unwinding (helicase) activity of PfUDN: inhibit the DNA unwinding activity of PfUDN effectively
  IC50: 4.7 µM
[5]
  IC50: 1.2 µM
[7]
  IC50: 0.5 µM
[6]
  IC50: 0.5 µM
[3]
  effect on ssDNA dependent ATPase activity of PfUDN: top four inhibitors
[3]; [10]
  IC50: 3.1 µM
[8]
  IC50: 1 µM

## COC(=O)[C@@H]1c2cc3c(c(O)c2[C@@H](O[C@@H]2O[C@@H](C)[C@H](OC)[C@@](C)(OC)[C@H]2OC)C[C@]1(C)O)C(=O)c1c(O)cc2c(c1C3=O)O[C@@H]1O[C@@]2(C)[C@H](O)[C@@H](N(C)C)[C@@H]1O [Nogalamycin, nogalamycin]
[4]
  IC50: 0.8 µM
[1]
  effect on DNA unwinding (helicase) activity of PfUDN: inhibit the DNA unwinding activity of PfUDN effectively
  IC50: 3.5 µM
[5]
  IC50: 2 µM
[7]
  IC50: 5 µM
[6]
  IC50: 0.5 µM
[3]
  effect on ssDNA dependent ATPase activity of PfUDN: top four inhibitors
[3]; [10]
  IC50: 3.3 µM
[9]
  IC50: 0.5 µM

## Cc1c2oc3c(C)ccc(C(=O)N[C@@H]4C(=O)N[C@H](C(C)C)C(=O)N5CCC[C@H]5C(=O)N(C)CC(=O)N(C)[C@@H](C(C)C)C(=O)O[C@@H]4C)c3nc-2c(C(=O)N[C@@H]2C(=O)N[C@H](C(C)C)C(=O)N3CCC[C@H]3C(=O)N(C)CC(=O)N(C)[C@@H](C(C)C)C(=O)O[C@@H]2C)c(N)c1=O [actinomycin] (I: T[dV]P[Sar][NMeV] / II: T[dV]P[Sar][NMeV]; ester I:1-I:C, II:1-II:C; linker I:N-II:N via Actinocin(9to1))
[1]
  effect on DNA unwinding (helicase) activity of PfUDN: not able to considerably inhibit
[3]
  effect on ssDNA dependent ATPase activity of PfUDN: not able to considerably inhibit

## CC[C@@]1(O)C(=O)OCc2c1cc1n(c2=O)Cc2cc3ccccc3nc2-1 [camptothecin]
[1]
  effect on DNA unwinding (helicase) activity of PfUDN: not able to considerably inhibit
[3]
  effect on ssDNA dependent ATPase activity of PfUDN: not able to considerably inhibit

## N.N.[Cl][Pt][Cl] [cisplatin]
[1]
  effect on DNA unwinding (helicase) activity of PfUDN: not able to considerably inhibit
[3]
  effect on ssDNA dependent ATPase activity of PfUDN: not able to considerably inhibit

## O=P1(N(CCCl)CCCl)NCCCO1 (centres unmarked) [cyclophosphamide]
[1]
  effect on DNA unwinding (helicase) activity of PfUDN: not able to considerably inhibit
[3]
  effect on ssDNA dependent ATPase activity of PfUDN: not able to considerably inhibit

## COc1cc([C@@H]2c3cc4c(cc3[C@@H](O[C@@H]3O[C@@H]5CO[C@@H](C)O[C@H]5[C@H](O)[C@H]3O)[C@H]3COC(=O)[C@H]23)OCO4)cc(OC)c1O [etoposide]
[1]
  effect on DNA unwinding (helicase) activity of PfUDN: blocks the helicase activity appreciably
  effect on helicase activity of PfUDN at lower concentration: failed to show appreciable inhibition
[3]
  effect on ssDNA dependent ATPase activity of PfUDN: not able to considerably inhibit

## O=c1c(-c2ccc(O)cc2)coc2cc(O)cc(O)c12 [genistein]
[1]
  effect on DNA unwinding (helicase) activity of PfUDN: not able to considerably inhibit
[3]
  effect on ssDNA dependent ATPase activity of PfUDN: not able to considerably inhibit

## O=c1c(O)c(-c2ccc(O)cc2O)oc2cc(O)cc(O)c12 [morin]
[1]
  effect on DNA unwinding (helicase) activity of PfUDN: not able to considerably inhibit
[3]
  effect on ssDNA dependent ATPase activity of PfUDN: weakly inhibit

## CO[C@@H]1[C@@H](OC(N)=O)[C@@H](O)[C@H](Oc2ccc3c(O)c(NC(=O)c4ccc(O)c(CC=C(C)C)c4)c(=O)oc3c2C)OC1(C)C [novobiocin]
[1]
  effect on DNA unwinding (helicase) activity of PfUDN: not able to considerably inhibit
[3]
  effect on ssDNA dependent ATPase activity of PfUDN: not able to considerably inhibit

Source: article PMC4234510, “Plasmodium falciparum UvrD activities are downregulated by DNA-interacting compounds and its dsRNA inhibits malaria parasite growth” (BMC Biochemistry, 2014)
